Entries after “also recorded” stand apart in the source; their conditions may differ. Bridge positions count the residues as written; N and C are the ends. Square brackets hold non-standard residues; d marks the D form. Peptide text beside a SMILES is read from it. I, II: the chains in the order shown. hArg = N=C(N)NCCCC[C@H](N)C(=O)O; Ac5c = NC1(C(=O)O)CCCC1; Aib = CC(C)(N)C(=O)O
Legend:
[1] = system: ovariectomized (OVX) rat; experiment: OVX rat model, bone strength measurements; format: in vivo; conditions: for bone strength of the femoral head in a compression test: FIG. 10; for bone strength of the femoral head in a compression test / bone strength of the femur in a three-point bending test versus vehicle-treated OVX animals: all doses; for bone strength of the femur, shaft region and femoral head region, versus vehicle-treated OVX-group: FIGS. 10 and 11
Method: (§1) One hundred and seventy-eight female Fisher rats were used for the experiment. Initially the animals were housed in Macrolon type 3 cages (2 rats/cage) under controlled conditions (20° C., 55-85% humidity) following a 12:12-hrs light/dark cycle with light on at 6 am. The animals were fed ad libitum with standard Altromin No. 1324 diet (Chr. Petersen, Ringsted, Denmark). The animals had free access to drinking water (domestic quality tap water added citric acid to pH≈3). At the time of inclusion the animals were 6 months old.
(§2) The week before OVX the animals were stratified according to body weight into two groups that were subjected to either OVX (140 animals) or sham operation (38 animals). Rats were anaesthetized with Hypnorm-Dormicum and the ovariectomy was performed through a midline laparotomy. Sham-operated animals were subjected to midline laparotomy, and the ovaries were exposed but not removed (sham). This group served as an age matched non-osteoporotic control group. A microchip was implanted into each rat during surgery, in order to allow identification of the animals.
(§3) To allow osteopenia to develop before treatment start, animals were housed for 7 weeks (pre-treatment period) without pharmacological treatment. At the end of the pre-treatment period, sham- and OVX-operated rats were stratified according to bodyweight and divided into six groups of 13-20 animals each (Table 7). At this point, one OVX group (N=20) and one sham group (N=20) were sacrificed. These control groups established baseline levels of bone mineral density (BMD). Furthermore, samples were stored for possible later analysis of bone markers, bone strength, histomorphometry and μCT scans.
(§4) For the following 6 weeks one sham group and one OVX group were subjected to vehicle administration (40 mM sodium acetate, 45 mM histidine and 3.9% mannitol, pH 5.5, 300 mOsm/kg). Five OVX groups were treated with increasing doses of the cyclic PTH(1-17) analogue SEQ ID NO: 19. Another OVX group was treated with SEQ ID NO: 33 (Table 7). All drugs were given as s.c. injections. After 6 weeks of treatment the animals were sacrificed. Spine, tibia and femur were collected for analysis of BMD by DEXA-scan and bone samples were stored for later bone strength measurements.
(§5) Lumbar vertebrae (L4-L5-L6-S1), left femur and tibia were collected, cleaned, packed in saline moistened gaze in a tube and stored at −20° C. for later ex vivo bone strength measurements. Right femur and tibia as well as lumbar vertebrae (T13-L1-L2-L3) and caudal vertebrae (S2-S3-C1-C2-C3) were collected, cleaned and stored in 70% ethanol for analysis of bone mineral density (BMD) and possible later histomorphometry and/or μCT scanning.
Bone strength measurements were performed on a compression device (Lloyd Instruments, Fareham, UK). Bones were positioned with the help of custom-made holders, in order to achieve maximal reproducibility. Maximal force to fracture was determined.
Overall comparison among groups was performed using one-way ANOVA for one-way classified data (BMD). For individual comparisons among groups, post-hoc analysis was performed using Fisher's least significant difference test. Differences were considered significant at the 5% level. All data are presented as mean±SEM.

[2] = system: ovariectomized (OVX) rat; experiment: OVX rat model, bone mineral density by DEXA; format: in vivo; parameters: increase in BMD in the femoral shaft compared to vehicle-treated OVX animals: unit not given here; conditions: for BMD proximal tibia (18% bone loss in OVX animals): FIG. 6, SEQ ID NO: 19 20-320, SEQ ID NO: 33 5 nmol/kg; for BMD proximal tibia (18% bone loss in OVX animals) / BMD in lumbar vertebrae L1-L2 relative to vehicle-treated OVX and sham animals: s.c. 6 weeks; for BMD in lumbar vertebrae L1-L2 relative to vehicle-treated OVX and sham animals: FIG. 7; for BMD compared to vehicle-treated OVX animals: all doses; for increase in BMD in the femoral shaft compared to vehicle-treated OVX animals / BMD in the femoral shaft: FIG. 9; for BMD in the femoral shaft: site rich in cortical bone
Description: The ovariectomiced(OVX) rat may be used to test the effect of the PTH analogues on osteopenia/osteoporosis in vivo. The OVX rat develop osteopenia due to ovarian hormone deficiency. Osteopenia can be detected as early as 14 days post OVX, increase for the next 100 days and then stabilized (Wronski T J et al., Calcif. Tissue Int., 43(3): 179-183, 1988). The OVX rat model is considered the “golden standard” by both authorities and industry as a model for osteoporosis (Peter C, Rodan G A. Preclinical safety profile of alendronate. Int j Clin Pract Suppl 1999; 101:3-8, and Stewart A F, Cain R L, Burr D B, Jacob D, Turner C H, Hock J M).
as §1, §2, §3, §4, §5
Ex vivo BMD measurements were performed at the end of the study using a Lunar Piximus II densitometer (GE Healthcare, Chalfont St. Giles, UK) with a precision of 1.5%. Calibration of the instrument was performed with an aluminium/Lucite phantom.
Tibiae, femora and lumbar (L1-L2) and sacral/caudal (S3-C1) spine fragments were placed on the imaging positioning tray and scanned four times. All specimens were placed in a similar orientation for correct comparison. Regions of interest (ROI) were generated on the scans using the Piximus image analysis software provided with the instrument. […]

[3] = doses greater than 20 nmol/kg/d

Structure (SMILES): CC[C@H](C)[C@H](NC(=O)[C@H](CCC(=O)O)NC(=O)C(C)(C)NC(=O)[C@@H](NC(=O)C1(N)CCCC1)C(C)C)C(=O)N[C@@H](CCC(N)=O)C(=O)N[C@@H](CC(C)C)C(=O)N[C@@H](CCSC)C(=O)N[C@@H](Cc1c[nH]cn1)C(=O)N[C@@H](CCC(N)=O)C(=O)N[C@@H](CCCCNC(=N)N)C(=O)N[C@@H](C)C(=O)N[C@H]1CCCCNC(=O)C[C@@H](C(N)=O)NC(=O)[C@H](CC(C)C)NC(=O)[C@H](Cc2c[nH]c3ccccc23)NC(=O)[C@@H](NC(=O)[C@H](C)NC(=O)[C@H](CCCCNC(=N)N)NC(=O)[C@H](CCC(N)=O)NC(=O)[C@H](Cc2c[nH]cn2)NC(=O)[C@H](CCSC)NC(=O)[C@H](CC(C)C)NC(=O)[C@H](CCC(N)=O)NC(=O)[C@@H](NC(=O)[C@H](CCC(=O)O)NC(=O)C(C)(C)NC(=O)[C@@H](NC(=O)C2(N)CCCC2)C(C)C)[C@@H](C)CC)CCCCNC(=O)C[C@@H](C(N)=O)NC(=O)[C@H](CC(C)C)NC(=O)[C@H](Cc2c[nH]c3ccccc23)NC1=O [SEQ ID NO: 33, (H-Ac5c-Val-Aib-Glu-Ile-Gln-Leu-Met-His-Gln-Har-Ala-Lys( )-Trp-Leu-Asp( )-NH2)2] (I: H-[Ac5c]V[Aib]EIQLMHQ[hArg]AKWLD-NH2 / II: H-[Ac5c]V[Aib]EIQLMHQ[hArg]AKWLD-NH2; amide I:13-II:16, I:16-II:13 (inferred))
- bone strength compared to vehicle-treated OVX-group ([1]; 5 nmol/kg/d): significantly increased
- bone strength of the femoral head in a compression test [1]: higher than in vehicle-treated OVX and sham animals at all doses
- bone strength of the femur in a three-point bending test versus vehicle-treated OVX animals ([1]; FIG. 11): higher than in vehicle-treated OVX animals at all doses
- bone strength of the femur, shaft region and femoral head region, versus vehicle-treated OVX-group [1]: significantly increased
- bone mineral density versus vehicle-treated ovariectomized rats, all sites tested ([2]; 5 nmol/kg/d s.c., 6 weeks): significant increases; also recorded: significantly increased
- BMD proximal tibia (18% bone loss in OVX animals) ([2]; OVX rats): completely reversed
- BMD in lumbar vertebrae L1-L2 relative to vehicle-treated OVX and sham animals ([2]; OVX rats): improved
- BMD compared to vehicle-treated OVX animals ([2]; FIG. 8): significantly increased
- increase in BMD in the femoral shaft compared to vehicle-treated OVX animals [2]: about 81
- BMD in the femoral shaft [2]: improved

Structure (SMILES): CC[C@H](C)[C@H](NC(=O)[C@H](CCC(=O)O)NC(=O)C(C)(C)NC(=O)[C@@H](NC(=O)C1(N)CCCC1)C(C)C)C(=O)N[C@@H](CCC(N)=O)C(=O)N[C@@H](CC(C)C)C(=O)N[C@@H](CC(C)C)C(=O)N[C@@H](Cc1c[nH]cn1)C(=O)N[C@@H](CCC(N)=O)C(=O)N[C@@H](CCCCNC(=N)N)C(=O)N[C@@H](C)C(=O)N[C@H]1CCCCNC(=O)C[C@@H](C(N)=O)NC(=O)[C@H](CC(N)=O)NC(=O)[C@H](CC(C)C)NC(=O)[C@H](Cc2c[nH]c3ccccc23)NC1=O [SEQ ID NO: 19, H-Ac5c-Val-Aib-Glu-Ile-Gln-Leu-Leu-His-Gln-Har-Ala-Lys( )-Trp-Leu-Asn-Asp( )-NH2] (H-[Ac5c]V[Aib]EIQLLHQ[hArg]AKWLND-NH2; lactam 13-17)
- bone strength of the femoral head in a compression test [1]: higher than in vehicle-treated OVX and sham animals at all doses
- bone strength of the femur in a three-point bending test versus vehicle-treated OVX animals ([1]; FIG. 11): higher than in vehicle-treated OVX animals at all doses
- bone strength of the femur in a three-point bending test versus vehicle-treated sham animals ([1]; FIG. 11, doses higher than 20 nmol/kg/d): increased strength compared to vehicle-treated sham animals
- bone strength of the femur, shaft region and femoral head region, versus vehicle-treated OVX-group [1]: significantly increased
- bone strength versus vehicle-treated sham-operated group [1, 3]: significantly increased
- bone mineral densities at the lowest dose ([2]; 20 nmol/kg/d): at least normalization
- bone mineral density versus vehicle-treated ovariectomized rats, regardless of site ([2]; 20 nmol/kg/d to 320 nmol/kg/d s.c., 6 weeks): significantly higher bone mineral density
- BMD proximal tibia (18% bone loss in OVX animals) ([2]; OVX rats): completely reversed
- BMD in lumbar vertebrae L1-L2 relative to vehicle-treated OVX and sham animals ([2]; OVX rats): improved
- BMD compared to vehicle-treated OVX animals ([2]; FIG. 8): significantly increased
- BMD over sham control levels ([2]; FIG. 8, doses higher than 20 nmol/kg/d): significantly increased over sham control levels
- increase in BMD in the femoral shaft compared to vehicle-treated OVX animals [2]: about 81
- BMD in the femoral shaft [2]: improved
- bone-anabolic activity in cortical and trabecular bone ([2]; OVX rats): showed bone-anabolic activity
- bone mineral density versus vehicle-treated sham-operated rats [2, 3]: bone mineral densities higher than in vehicle-treated sham-operated rats

— patent US20100048462A1, “TRUNCATED PTH PEPTIDES WITH A CYCLIC CONFORMATION” (Zealand Pharma A/S, priority 2006, published 2010)
